Results on 24 compounds are retold here after ChEMBL document CHEMBL2385055, “Optimization of a 1,5-dihydrobenzo[b][1,4]diazepine-2,4-dione series of HIV capsid assembly inhibitors 2: structure-activity relationships (SAR) of the C3-phenyl moiety” (Bioorg Med Chem Lett, 2013).

Data set [1] is described as follows: Induction of HIV1 NL4-3 nucleocapsid protein disassembly expressed in expressed in Escherichia coli BL21 (DE3) using 5'-end fluorescein labeled (TG)25 oligonucleotide after 2 hrs by fluorescence assay. More on the design: species or system Human immunodeficiency virus 1.
The nature of data set [2]: Cytotoxicity against human C8166 cells. The format is cell-based.
The nature of data set [3]: Inhibition of HIV1 NL4-3 nucleocapsid protein assembly expressed in expressed in Escherichia coli BL21 (DE3) using 5'-end fluorescein labeled (TG)25 oligonucleotide after 2 hrs by fluorescence assay. More on the design: species or system Human immunodeficiency virus 1.
Data set [4] deals with Human immunodeficiency virus 1. Description: Antiviral activity against HIV1 infected in human C8166 cells assessed as inhibition of viral replication after 2 days by luciferase assay. The class given is functional, organism-based. The note with it: Human immunodeficiency virus 1, C8166, 48 h.
The next data set addresses Cytochrome P450 2D6 (Homo sapiens, UniProt P10635). As to the kind of experiment: Inhibition of CYP2D6 (unknown origin). The class given is ADME.
The target of a further data set is Cytochrome P450 3A4 (Homo sapiens, UniProt P08684). Description: Inhibition of CYP3A4 (unknown origin). The class given is ADME.
Chain of Cytochrome P450 3A4 (P08684 whole entry): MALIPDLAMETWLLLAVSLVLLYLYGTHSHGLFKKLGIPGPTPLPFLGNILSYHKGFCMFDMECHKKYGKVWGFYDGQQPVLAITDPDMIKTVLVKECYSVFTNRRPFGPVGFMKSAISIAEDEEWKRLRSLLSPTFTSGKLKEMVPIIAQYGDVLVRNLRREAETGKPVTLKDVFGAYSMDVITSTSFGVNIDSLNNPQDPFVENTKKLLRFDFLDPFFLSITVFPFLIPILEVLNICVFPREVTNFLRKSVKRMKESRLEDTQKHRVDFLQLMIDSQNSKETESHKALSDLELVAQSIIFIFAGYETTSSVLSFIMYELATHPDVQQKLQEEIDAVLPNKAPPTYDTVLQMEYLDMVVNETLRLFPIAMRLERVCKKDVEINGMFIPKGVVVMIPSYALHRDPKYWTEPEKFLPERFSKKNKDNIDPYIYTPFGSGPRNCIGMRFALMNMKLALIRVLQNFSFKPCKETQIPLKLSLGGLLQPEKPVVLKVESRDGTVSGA
Data set [5] in a line: Permeability across human Caco2 cells. The format is ADME, cell-based. As to conditions: Caco-2, read-out: permeability.
Data set [6] in a line: Half life in human liver microsomes. The class given is ADME, Microsome.
Data set [7] is described as follows: Half life in rat liver microsomes. The format is ADME, Microsome.
For the next data set, the system named is Rattus norvegicus. As to the kind of experiment: Total clearance in iv dosed rat relative to liver blood perfusion rate. As to conditions: in vivo. The format is ADME, organism-based.
Data set [8] can be described thus: Half life in iv dosed rat. As to conditions: in vivo. The format is ADME, organism-based.
Data set [9] in a line: Volume of distribution at steady state in iv dosed rat. The class given is ADME, organism-based. As to conditions: in vivo, read-out: Vdss.

pEC50, pIC50: −log10 of the molar value. Bounds are passed on as bounds.

Chain of Cytochrome P450 2D6 (P10635 whole entry): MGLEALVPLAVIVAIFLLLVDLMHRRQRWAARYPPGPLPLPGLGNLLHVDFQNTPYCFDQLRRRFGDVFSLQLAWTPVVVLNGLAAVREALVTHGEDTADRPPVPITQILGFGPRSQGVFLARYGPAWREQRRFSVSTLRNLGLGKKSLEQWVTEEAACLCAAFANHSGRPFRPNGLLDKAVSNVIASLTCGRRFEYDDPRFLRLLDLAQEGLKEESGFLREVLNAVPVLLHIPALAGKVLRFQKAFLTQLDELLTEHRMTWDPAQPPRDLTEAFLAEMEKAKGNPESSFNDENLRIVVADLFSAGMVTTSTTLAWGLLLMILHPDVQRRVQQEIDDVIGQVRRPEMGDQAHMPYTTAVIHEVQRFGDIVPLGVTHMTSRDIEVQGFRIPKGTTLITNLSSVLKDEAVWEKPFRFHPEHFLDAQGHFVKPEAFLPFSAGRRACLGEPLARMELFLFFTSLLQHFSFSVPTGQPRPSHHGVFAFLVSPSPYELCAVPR

Turning to `CN1C(=O)C(c2ccccc2)C(=O)N(c2ccccc2)c2cc(C(F)(F)F)ccc21` (stereo not given), in [1], the pIC50 was 6.17.
Consider `CCN1C(=O)C(c2ccc(-c3cnco3)cc2)C(=O)N(c2ccccc2)c2cc(C(F)(F)F)ccc21` (stereo not given), for which the CC50 in data set [2] is greater than 7 µM. Moreover, the negative logarithm of the IC50 (pIC50) in [3] is 6.12; in [1], 6.33. Moreover, in data set [4], the negative-log EC50 (pEC50) is 5.96.
As to `CCN1C(=O)C(c2ccccc2)C(=O)N(c2ccccc2)c2cc(C(F)(F)F)ccc21` (stereo not given), the pIC50 was 6.14 in [3] and 6.32 in data set [1].
In the case of `COc1ccccc1C1C(=O)N(C)c2ccc(C(F)(F)F)cc2N(c2ccccc2)C1=O` (stereo not given), the negative logarithm of the IC50 (pIC50) in data set [3] was 6.15. For the same compound, the pEC50 in data set [4] is 5.57.
In data set [3], `COc1cccc(C2C(=O)N(C)c3ccc(C(F)(F)F)cc3N(c3ccccc3)C2=O)c1` (stereo not given) showed a pIC50 of 6.26. In data set [4], the pEC50 is 5.92.
As for `COc1ccc(C2C(=O)N(C)c3ccc(C(F)(F)F)cc3N(c3ccccc3)C2=O)cc1` (stereo not given), the pIC50 in data set [3] is 5.96. The pEC50 in data set [4] was 5.49.
On to `CCN1C(=O)C(c2ccc(O)cc2)C(=O)N(c2ccccc2)c2cc(C(F)(F)F)ccc21` (stereo not given), for which the pIC50 in data set [3] is 6.40; in [1] it was 6.74. Moreover, in data set [4], the negative logarithm of the EC50 (pEC50) is 6.00.
Turning to `CCN1C(=O)C(c2ccc(O)c(OC)c2)C(=O)N(c2ccccc2)c2cc(C(F)(F)F)ccc21` (stereo not given), the CC50 in data set [2] came out at 42 µM. Besides, the values for the negative logarithm of the IC50 (pIC50) in data set [3] and in data set [1] were 6.23 and 6.96, respectively. For the same compound, in data set [4], the pEC50 was 6.28.
As for `CCN1C(=O)C(c2ccccc2-c2ccncc2)C(=O)N(c2ccccc2)c2cc(C(F)(F)F)ccc21` (stereo not given), the pIC50 in data set [3] was less than 5.14.
Consider `CCN1C(=O)C(c2cccc(-c3ccncc3)c2)C(=O)N(c2ccccc2)c2cc(C(F)(F)F)ccc21` (stereo not given), for which the midpoint of cytotoxicity in data set [2], the CC50, lay at 17 µM. For the same compound, the pIC50 in data set [3] was 6.28; in data set [1], 6.72. For the same compound, in data set [4], the negative logarithm of the EC50 (pEC50) was 6.10.
As for `CCN1C(=O)C(c2ccc(-c3ccncc3)cc2)C(=O)N(c2ccccc2)c2cc(C(F)(F)F)ccc21` (stereo not given), the cytotoxic concentration (CC50) in data set [2] was determined as 15 µM. The pIC50 in data set [3] was 6.41; in data set [1], 6.68. In data set [4], the pEC50 is 6.24.
The compound `CCN1C(=O)C(c2cccc(-c3cccnc3)c2)C(=O)N(c2ccccc2)c2cc(C(F)(F)F)ccc21` (stereo not given) returned a CC50 in data set [2] of 20 µM. In [3], this compound gave a pIC50 of 6.32. Besides, the negative-log EC50 (pEC50) in [4] was 6.00.
Compound `CCN1C(=O)C(c2cccc(-c3cnn(C)c3)c2)C(=O)N(c2ccccc2)c2cc(C(F)(F)F)ccc21` (stereo not given) registered a CC50 in data set [2] of 20 µM. The pIC50 in data set [3] was 6.20; in data set [1], 6.89. Besides, the pEC50 in [4] is 6.15.
As to `CCN1C(=O)C(c2cccc(-c3ccnn3C)c2)C(=O)N(c2ccccc2)c2cc(C(F)(F)F)ccc21` (stereo not given), in data set [2], the midpoint of cytotoxicity, the CC50, lay at 30 µM. In addition, the negative logarithm of the IC50 (pIC50) in [3] is 6.17; in [1], 6.52. Also, in [4], the pEC50 was 6.00.
Consider `CCN1C(=O)C(c2ccc(-c3cccnc3)cc2)C(=O)N(c2ccccc2)c2cc(C(F)(F)F)ccc21` (stereo not given), for which the 50% cytotoxic concentration (CC50) in data set [2] came out at 7 µM. Moreover, the pIC50 is 6.40 in data set [3] and 6.49 in data set [1]. Besides, in [4], the negative-log EC50 (pEC50) was 6.40.
In data set [2], `CCN1C(=O)C(c2ccc(-c3cnc(OC)nc3)cc2)C(=O)N(c2ccccc2)c2cc(C(F)(F)F)ccc21` (stereo not given) registered a 50% cytotoxic concentration (CC50) greater than 20 µM. The pIC50 was 6.35 in data set [3] and 6.57 in data set [1]. In addition, the negative logarithm of the EC50 (pEC50) in data set [4] is 6.21.
Take `CCN1C(=O)C(c2cc(-c3cnn(C)c3)ccc2O)C(=O)N(c2ccccc2)c2cc(C(F)(F)F)ccc21` (stereo not given): the values for the INH at Cytochrome P450 2D6 and at Cytochrome P450 3A4 were greater than 30 µM and 1.7 µM, respectively. For the same compound, in data set [5], the Papp was 43 nm/s. In data set [1], this compound gave a negative logarithm of the IC50 (pIC50) of 6.77. Besides, the pEC50 in data set [4] is 6.74. For the same compound, in data set [6], the half-life was found to be 2.5 h.
Take `CCN1C(=O)C(c2ccc(O)c(-c3cnn(C)c3)c2)C(=O)N(c2ccccc2)c2cc(C(F)(F)F)ccc21` (stereo not given): the figures for the INH on Cytochrome P450 2D6 and on Cytochrome P450 3A4 were greater than 30 µM and 5.7 µM, respectively. In addition, in data set [5], the Papp was less than 1 nm/s. In data set [1], this compound showed a negative logarithm of the IC50 (pIC50) of 6.92. In data set [4], the pEC50 is 6.72. This compound also had a half-life in data set [6] of 2 h.
For `CCN1C(=O)C(c2cc(-c3cnn(C)c3)c(O)cc2O)C(=O)N(c2ccccc2)c2cc(C(F)(F)F)ccc21` (stereo not given), the results for the INH on Cytochrome P450 2D6 and at Cytochrome P450 3A4 were 13 µM and 4.5 µM, respectively. The Papp in [5] was determined as 77 nm/s. The same compound had a negative-log IC50 (pIC50) in data set [1] of 7.00. Besides, the half-life in data set [7] was found to be 0.183 h; in [6], 1.85 h. Besides, the negative logarithm of the EC50 (pEC50) in data set [4] is 6.85.
As for `CCN1C(=O)C(c2cc(-c3cn[nH]c3)c(O)cc2O)C(=O)N(c2ccccc2)c2cc(C(F)(F)F)ccc21` (stereo not given), the INH at Cytochrome P450 2D6 is 8.9 µM; on Cytochrome P450 3A4, 4.8 µM. The Papp in data set [5] was less than 1 nm/s. In addition, the pIC50 in data set [1] is 7.30. Besides, the half-life in [7] is 0.25 h; in data set [6], greater than 5 h. In addition, the negative-log EC50 (pEC50) in data set [4] was 6.89.
Consider `CCCn1cc(-c2cc(C3C(=O)N(CC)c4ccc(C(F)(F)F)cc4N(c4ccccc4)C3=O)cc(OC)c2O)cn1` (stereo not given), for which the INH at Cytochrome P450 2D6 is greater than 30 µM; at Cytochrome P450 3A4, 3.6 µM. Besides, the Papp in data set [5] amounted to 99 nm/s. The compound further showed a CL in the data set with Rattus norvegicus of 50%. The half-life in data set [8] was 4.8 h; in data set [7], 1.12 h; in data set [6], 1.43 h. Further, the negative logarithm of the IC50 (pIC50) in data set [1] was 6.80. Further, the Vd in [9] turned out to be 15 L/kg. For the same compound, the negative-log EC50 (pEC50) in data set [4] was 7.15.
In [1], `CCN1C(=O)N(c2ccc(O)c(-c3cnn(C)c3)c2)C(=O)N(c2ccccc2)c2cc(C(F)(F)F)ccc21` gave a negative logarithm of the IC50 (pIC50) of 6.92. In data set [4], the pEC50 was 6.62.
Consider `CCN1C(=O)C2(CCc3cc(O)c(-c4cnn(C)c4)cc32)C(=O)N(c2ccccc2)c2cc(C(F)(F)F)ccc21` (stereo not given), for which the pIC50 in data set [1] was 6.89. For the same compound, in [4], the pEC50 was 6.52.
In turn, `CCN1C(=O)C2(CCc3c2ccc(O)c3-c2cnn(C)c2)C(=O)N(c2ccccc2)c2cc(C(F)(F)F)ccc21` (stereo not given) had a negative logarithm of the IC50 (pIC50) in [1] of 6.70. Besides, in data set [4], the pEC50 was 6.11.
